Source: patent publication US11279733B2, “Peptide antibiotics” (priority 2017, dated 2022)
Values after ≈ are worked out from the molar mass of the structure shown. Like-named read-outs stand apart in the source and are kept apart here. Positions of bridges follow the written chain, without caps; N, C: chain ends. Non-standard residues stand in square brackets, D forms with d. Residues, ends and D or L forms follow the SMILES beside them. *: point of attachment. Decanoyl(3R-OH) = CCCCCCC[C@@H](O)CC(=O)*; Octanoyl(3-OH) = CCCCCC(O)CC(=O)*; X13 = CCCCCCCCCC(O)CC(=O)*; dDab = NCC[C@@H](N)C(=O)O; Dab = NCC[C@H](N)C(=O)O; Pentanoyl = CCCCC(=O)*

Experiments:
[1] = in vitro; settings: human
Procedure: Cytotoxicity of the synthesised peptides was evaluated by comparison with commercially available colistin (polymyxin E), polymyxin B (Sigma chemical Co., St. Louis, Mo., U.S.A.) and synthetic octapeptin C4 by conducting lactate dehydrogenase (LDH) assay. CC50 values calculated based on curve fitting of dose dependent inhibition of cell growth represented the cytotoxicity of the peptide. Human kidney 2 (HK2) cells were seeded as 2000 cells per well in a 384 well cell culture plate in a final volume of 20 μL in DMEM/F12 medium (Invitrogen #11330057), in which 10% of FBS was added. Cells were incubated for 24 hours at 37° C., 5% CO2 to allow cells to attach to the plates. Similar conditions were employed for HEK293 and HepG2 cytotoxicity assays.
Colistin and polymyxin B were tested from a range of 2 mM to 0.9 μM. 120 μL of the 1 mM stock solutions in water of each synthesised peptide were freeze-dried and processed for LDH assay. After freeze-dry procedure, the compounds were reconstituted into 600 μM solutions using culture media. All tested compounds were diluted from 600 μM to 0.27 μM in 3-fold dilutions. Then 20 μL of each dilution was added into 20 uL of culture medium in quadruplicate to reach the final concentrations. The cells were incubated with the compounds for 24 h at 37° C., 5% CO2. After the incubation, 5 μL of culture medium was added to 50 μL of LDH assay buffer and incubated for 1 h at room temperature. The absorbance was read at 450 nm using Polarstar. The data was then analysed by Prism software. […] Nephrotoxicity Assessment in Human Proximal Tubule Cells.

[2] = system: E. coli ATCC 25922; settings: ATCC 25922
Summary of the method: (§1)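 Mid-log cultures grown in Mueller Hinton broth at 37° C were tested by 2-fold broth microdilution at 5×10^5 CFU/mL final. Compounds were dissolved in water and tested over a final range of 32 to 0.015 μg/mL.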

[3] = system: K. pneumoniae ATCC BAA-2146, NDM-1 pos; settings: ATCC BAA-2146
Summary of the method: as §1

[4] = system: P. aeruginosa GN_043, PmxR
Summary of the method: as §1

[5] = system: K. pneumoniae ATCC 13883; settings: ATCC 13883
Summary of the method: as §1

[6] = system: P. aeruginosa ATCC 27853; settings: ATCC 27853
Summary of the method: as §1

[7] = system: K. pneumoniae ATCC 700603, MDR; settings: ATCC 700603
Summary of the method: as §1

[8] = system: A. baumannii ATCC 19606; settings: ATCC 19606
Summary of the method: as §1

[9] = system: K. pneumoniae GN_106, PmxR; settings: GN 106, PmxR
Summary of the method: as §1

[10] = system: P. aeruginosa GN_105, PmxR; settings: GN 105, PmxR
Summary of the method: as §1

[11] = system: K. pneumoniae GN_102 PmxR; settings: GN 102 PmxR
Summary of the method: as §1

[12] = system: S. aureus ATCC 25923, MSSA; settings: ATCC 25923
Summary of the method: as §1

[13] = system: A. baumannii GN_093 PmxR; settings: GN 093 PmxR
Summary of the method: as §1

CCCCC(=O)N[C@H](CCN)C(=O)N[C@H]1CCNC(=O)[C@H](CC(C)C)NC(=O)[C@H](CCN)NC(=O)[C@H](CCN)NC(=O)[C@H](CC(C)C)NC(=O)[C@@H](Cc2ccccc2)NC(=O)[C@H](CCN)NC1=O [compound 919, C4CO-D-Dab-cyc[L-Dab-L-Dab-D-Phe-L-Leu-L-Dab-L-Dab-L-Leu]] (Pentanoyl-[dDab][Dab][Dab][dF]L[Dab][Dab]L; lactam 2-C)
CC50 at 24 h [1]: > 300 µM
MIC E. coli ATCC 25922 [2]: 32 µg/mL (≈ 33.4 µM)
MIC K. pneumoniae ATCC BAA-2146, NDM-1 pos [3]: 16 µg/mL (≈ 16.7 µM)
MIC P. aeruginosa GN_043, PmxR [4]: >32 µg/mL
MIC K. pneumoniae ATCC 13883 [5]: 32 µg/mL (≈ 33.4 µM)
MIC P. aeruginosa ATCC 27853 [6]: 2 µg/mL (≈ 2.09 µM)
MIC K. pneumoniae ATCC 700603, MDR [7]: >32 µg/mL
MIC A. baumannii ATCC 19606 [8]: 16 µg/mL (≈ 16.7 µM)

CCCCCCC[C@@H](O)CC(=O)N[C@H](CCN)C(=O)N[C@H]1CCNC(=O)[C@H](C)NC(=O)[C@H](CCN)NC(=O)[C@H](CCN)NC(=O)[C@H](CC(C)C)NC(=O)[C@@H](Cc2ccccc2)NC(=O)[C@H](CCN)NC1=O [compound 4943, 3(R)OH-nC9CO-D-Dab-cyc[L-Dab-L-Dab-D-Phe-L-Leu-L-Dab-L-Dab-L-Ala]] ({Decanoyl(3R-OH)}-[dDab][Dab][Dab][dF]L[Dab][Dab]A; lactam 2-C)
CC50 at 24 h [1]: > 300 µM
MIC E. coli ATCC 25922 [2]: 8 µg/mL (≈ 7.98 µM)
MIC K. pneumoniae GN_106, PmxR [9]: 16 µg/mL (≈ 16 µM)
MIC K. pneumoniae ATCC BAA-2146, NDM-1 pos [3]: 8 µg/mL (≈ 7.98 µM)
MIC P. aeruginosa GN_105, PmxR [10]: 16 µg/mL (≈ 16 µM)
MIC K. pneumoniae GN_102 PmxR [11]: 8 µg/mL (≈ 7.98 µM)
MIC P. aeruginosa GN_043, PmxR ([4]; polymyxin-resistant): 0.5 µg/mL (≈ 0.499 µM)
MIC S. aureus ATCC 25923, MSSA [12]: >32 µg/mL
MIC K. pneumoniae ATCC 13883 [5]: 16 µg/mL (≈ 16 µM)
MIC P. aeruginosa ATCC 27853 [6]: 1 µg/mL (≈ 0.998 µM)
MIC A. baumannii GN_093 PmxR [13]: 32 µg/mL (≈ 31.9 µM)
MIC K. pneumoniae ATCC 700603, MDR [7]: 8 µg/mL (≈ 7.98 µM)
MIC A. baumannii ATCC 19606 [8]: >32 µg/mL

CCCCCCC[C@@H](O)CC(=O)N[C@H](CCN)C(=O)N[C@H]1CCNC(=O)[C@H](CC(C)C)NC(=O)[C@H](CCN)NC(=O)[C@H](C)NC(=O)[C@H](CC(C)C)NC(=O)[C@@H](Cc2ccccc2)NC(=O)[C@H](CCN)NC1=O [compound 4945, 3(R)OH-nC9CO-D-Dab-cyc[L-Dab-L-Dab-D-Phe-L-Leu-L-Ala-L-Dab-L-Leu]] ({Decanoyl(3R-OH)}-[dDab][Dab][Dab][dF]LA[Dab]L; lactam 2-C)
CC50 at 24 h [1]: 181 µM
MIC, E. coli ATCC 25922 [2]: 16 µg/mL (≈ 15.8 µM)
MIC, K. pneumoniae Cl 138-16347-20362, PmxR [9]: 16 µg/mL (≈ 15.8 µM)
MIC, K. pneumoniae ATCC BAA-2146, NDM-1 pos [3]: 8 µg/mL (≈ 7.88 µM)
MIC, P. aeruginosa PA9704, PmxR [10]: 8 µg/mL (≈ 7.88 µM)
MIC, K. pneumoniae Cl Koprana 10065 0661:1, PmxR [11]: 4 µg/mL (≈ 3.94 µM)
MIC, P. aeruginosa FADDI-PA070, PmxR ([4]; Table 5, polymyxin-resistant): 4 µg/mL (≈ 3.94 µM)
MIC, S. Aureus ATCC 25923, MSSA [12]: 32 µg/mL (≈ 31.5 µM)
MIC, K. pneumoniae ATCC 13883 [5]: 16 µg/mL (≈ 15.8 µM)
MIC, P. aeruginosa ATCC 27853 [6]: 4 µg/mL (≈ 3.94 µM)
MIC, A. baumannii Cl Ptyela 10073 4512:2, PmxR [13]: 32 µg/mL (≈ 31.5 µM)
MIC, K. pneumoniae ATCC 700603, MDR [7]: 8 µg/mL (≈ 7.88 µM)
MIC, A. baumannii ATCC 19606 [8]: 16 µg/mL (≈ 15.8 µM)

CCCCCCC[C@@H](O)CC(=O)N[C@H](CCN)C(=O)N[C@H]1CCNC(=O)[C@H](Cc2ccccc2)NC(=O)[C@H](CCN)NC(=O)[C@H](CCN)NC(=O)[C@H](CC(C)C)NC(=O)[C@@H](Cc2ccccc2)NC(=O)[C@H](CCN)NC1=O [compound 5004, 3(R)OH-nC9CO-D-Dab-cyc[L-Dab-L-Dab-D-Phe-L-Leu-L-Dab-L-Dab-L-Phe]] ({Decanoyl(3R-OH)}-[dDab][Dab][Dab][dF]L[Dab][Dab]F; lactam 2-C)
CC50 at 24 h [1]: 23 µM
MIC E. coli ATCC 25922 [2]: 8 µg/mL (≈ 7.42 µM)
MIC K. pneumoniae ATCC BAA-2146, NDM-1 pos [3]: 4 µg/mL (≈ 3.71 µM)
MIC P. aeruginosa GN_105, PmxR [10]: 8 µg/mL (≈ 7.42 µM)
MIC P. aeruginosa GN_043, PmxR ([4]; polymyxin-resistant): 2 µg/mL (≈ 1.85 µM)
MIC K. pneumoniae ATCC 13883 [5]: 4 µg/mL (≈ 3.71 µM)
MIC P. aeruginosa ATCC 27853 [6]: 4 µg/mL (≈ 3.71 µM)
MIC K. pneumoniae ATCC 700603, MDR [7]: 8 µg/mL (≈ 7.42 µM)
MIC A. baumannii ATCC 19606 [8]: 4 µg/mL (≈ 3.71 µM)

CCCCCCC[C@@H](O)CC(=O)N[C@H](CCN)C(=O)N[C@H]1CCNC(=O)[C@H](Cc2ccccc2)NC(=O)[C@H](CCN)NC(=O)[C@H](CCN)NC(=O)[C@H](Cc2ccccc2)NC(=O)[C@@H](Cc2ccccc2)NC(=O)[C@H](CCN)NC1=O [compound 5005, 3(R)OH-nC9CO-D-Dab-cyc[L-Dab-L-Dab-D-Phe-L-Phe-L-Dab-L-Dab-L-Phe]] ({Decanoyl(3R-OH)}-[dDab][Dab][Dab][dF]F[Dab][Dab]F; lactam 2-C)
CC50 at 24 h [1]: 54 µM
MIC E. coli ATCC 25922 [2]: 8 µg/mL (≈ 7.19 µM)
MIC K. pneumoniae ATCC BAA-2146, NDM-1 pos [3]: 8 µg/mL (≈ 7.19 µM)
MIC P. aeruginosa GN_043, PmxR ([4]; polymyxin-resistant): 2 µg/mL (≈ 1.8 µM)
MIC K. pneumoniae ATCC 13883 [5]: 4 µg/mL (≈ 3.6 µM)
MIC P. aeruginosa ATCC 27853 [6]: 2 µg/mL (≈ 1.8 µM)
MIC K. pneumoniae ATCC 700603, MDR [7]: 8 µg/mL (≈ 7.19 µM)
MIC A. baumannii ATCC 19606 [8]: >32 µg/mL

CCCCCC(O)CC(=O)N[C@H](CCN)C(=O)N[C@H]1CCNC(=O)[C@H](CC(C)C)NC(=O)[C@H](CCN)NC(=O)[C@H](CCN)NC(=O)[C@H](CC(C)C)NC(=O)[C@@H](Cc2ccccc2)NC(=O)[C@H](CCN)NC1=O (stereo partly drawn) [compound 5012, 3OH-nC7CO-D-Dab-cyc[L-Dab-L-Dab-D-Phe-L-Leu-L-Dab-L-Dab-L-Leu]] ({Octanoyl(3-OH)}-[dDab][Dab][Dab][dF]L[Dab][Dab]L; lactam 2-C)
CC50 at 24 h [1]: 130 µM
MIC E. coli ATCC 25922 [2]: 32 µg/mL (≈ 31.5 µM)
MIC K. pneumoniae GN_106, PmxR [9]: >32 µg/mL
MIC K. pneumoniae ATCC BAA-2146, NDM-1 pos [3]: 32 µg/mL (≈ 31.5 µM)
MIC P. aeruginosa GN_105, PmxR [10]: 4 µg/mL (≈ 3.94 µM)
MIC P. aeruginosa GN_043, PmxR [4]: 4 µg/mL (≈ 3.94 µM)
MIC S. aureus ATCC 25923, MSSA [12]: >32 µg/mL
MIC K. pneumoniae ATCC 13883 [5]: 8 µg/mL (≈ 7.87 µM)
MIC P. aeruginosa ATCC 27853 [6]: 4 µg/mL (≈ 3.94 µM)
MIC A. baumannii GN_093 PmxR [13]: >32 µg/mL
MIC K. pneumoniae ATCC 700603, MDR [7]: 16 µg/mL (≈ 15.7 µM)
MIC A. baumannii ATCC 19606 [8]: >32 µg/mL

CCCCCCCCCC(O)CC(=O)N[C@H](CCN)C(=O)N[C@H]1CCNC(=O)[C@H](CC(C)C)NC(=O)[C@H](CCN)NC(=O)[C@H](CCN)NC(=O)[C@H](CC(C)C)NC(=O)[C@@H](Cc2ccccc2)NC(=O)[C@H](CCN)NC1=O (stereo partly drawn) [compound 5014, 3OH-nC11CO-D-Dab-cyc[L-Dab-L-Dab-D-Phe-L-Leu-L-Dab-L-Dab-L-Leu]] (X13-[dDab][Dab][Dab][dF]L[Dab][Dab]L; lactam 2-C)
CC50 at 24 h [1]: 19 µM
MIC E. coli ATCC 25922 [2]: 2 µg/mL (≈ 1.86 µM)
MIC K. pneumoniae ATCC BAA-2146, NDM-1 pos [3]: 16 µg/mL (≈ 14.9 µM)
MIC P. aeruginosa GN_105, PmxR [10]: 32 µg/mL (≈ 29.8 µM)
MIC P. aeruginosa GN_043, PmxR [4]: 4 µg/mL (≈ 3.73 µM)
MIC S. aureus ATCC 25923, MSSA [12]: 4 µg/mL (≈ 3.73 µM)
MIC K. pneumoniae ATCC 13883 [5]: 4 µg/mL (≈ 3.73 µM)
MIC P. aeruginosa ATCC 27853 [6]: 4 µg/mL (≈ 3.73 µM)
MIC K. pneumoniae ATCC 700603, MDR [7]: 8 µg/mL (≈ 7.46 µM)
MIC A. baumannii ATCC 19606 [8]: 8 µg/mL (≈ 7.46 µM)
